Laboratory results from ChEMBL document CHEMBL5442175, “EUbOPEN Chemogenomics Library - PDSP Secondary Binding” (2024).
Where a name gives a salt, the structure may show the parent alone. Each block holds one compound with its values, some of them ahead of it.

Key:
D(1B) dopamine receptor = D(1B) dopamine receptor (Homo sapiens, UniProt P21918); assay: (§1) PDSP Secondary Binding target: DRD5 - Compounds are tested at 10 uM concentration, plate are incubated at room temperature in the dark for 90 minutes. Reaction are stopped by vacuum filtration onto 0.3% polyethyleneimine soaked filter mats using Filtermate harvester. Scintillation cocktail is then melted onto microwave-dried filters on a hot plate and the radio activity is counted in Microbia counter.
Chain of D(1B) dopamine receptor (P21918 whole entry): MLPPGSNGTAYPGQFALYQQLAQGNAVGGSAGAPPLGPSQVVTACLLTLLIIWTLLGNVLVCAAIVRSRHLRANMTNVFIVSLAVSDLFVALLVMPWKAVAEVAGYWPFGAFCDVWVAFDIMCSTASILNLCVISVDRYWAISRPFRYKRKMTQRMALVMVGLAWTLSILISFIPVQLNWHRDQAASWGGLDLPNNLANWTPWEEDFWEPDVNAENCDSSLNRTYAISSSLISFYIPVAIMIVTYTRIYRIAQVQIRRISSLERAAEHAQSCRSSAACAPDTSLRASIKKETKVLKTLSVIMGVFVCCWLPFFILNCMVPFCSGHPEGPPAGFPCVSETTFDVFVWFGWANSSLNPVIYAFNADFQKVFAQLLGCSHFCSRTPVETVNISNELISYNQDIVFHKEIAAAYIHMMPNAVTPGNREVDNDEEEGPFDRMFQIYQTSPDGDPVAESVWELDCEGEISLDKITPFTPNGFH

[1] = target: Sigma non-opioid intracellular receptor 1 (Homo sapiens, UniProt Q99720); assay: as §1, with “SIGMAR1” for “DRD5”
Chain of Sigma non-opioid intracellular receptor 1 (Q99720 whole entry): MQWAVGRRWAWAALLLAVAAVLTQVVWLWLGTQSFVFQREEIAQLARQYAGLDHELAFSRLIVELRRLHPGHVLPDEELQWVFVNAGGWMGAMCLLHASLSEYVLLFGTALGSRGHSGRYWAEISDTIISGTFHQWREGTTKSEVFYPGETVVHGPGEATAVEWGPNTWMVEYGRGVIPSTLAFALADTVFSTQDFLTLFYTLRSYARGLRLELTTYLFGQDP

Translocator protein = Translocator protein (Homo sapiens, UniProt P30536); assay: as §1, with “TSPO” for “DRD5”
Chain of Translocator protein (P30536 whole entry): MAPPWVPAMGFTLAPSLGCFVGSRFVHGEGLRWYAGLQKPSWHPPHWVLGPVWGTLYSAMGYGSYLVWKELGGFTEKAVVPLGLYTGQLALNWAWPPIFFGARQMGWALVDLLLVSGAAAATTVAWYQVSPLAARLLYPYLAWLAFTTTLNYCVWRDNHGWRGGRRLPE

[2] = target: Sodium-dependent noradrenaline transporter (Homo sapiens, UniProt P23975); assay: as §1, with “SLC6A2” for “DRD5”
Chain of Sodium-dependent noradrenaline transporter (P23975 whole entry): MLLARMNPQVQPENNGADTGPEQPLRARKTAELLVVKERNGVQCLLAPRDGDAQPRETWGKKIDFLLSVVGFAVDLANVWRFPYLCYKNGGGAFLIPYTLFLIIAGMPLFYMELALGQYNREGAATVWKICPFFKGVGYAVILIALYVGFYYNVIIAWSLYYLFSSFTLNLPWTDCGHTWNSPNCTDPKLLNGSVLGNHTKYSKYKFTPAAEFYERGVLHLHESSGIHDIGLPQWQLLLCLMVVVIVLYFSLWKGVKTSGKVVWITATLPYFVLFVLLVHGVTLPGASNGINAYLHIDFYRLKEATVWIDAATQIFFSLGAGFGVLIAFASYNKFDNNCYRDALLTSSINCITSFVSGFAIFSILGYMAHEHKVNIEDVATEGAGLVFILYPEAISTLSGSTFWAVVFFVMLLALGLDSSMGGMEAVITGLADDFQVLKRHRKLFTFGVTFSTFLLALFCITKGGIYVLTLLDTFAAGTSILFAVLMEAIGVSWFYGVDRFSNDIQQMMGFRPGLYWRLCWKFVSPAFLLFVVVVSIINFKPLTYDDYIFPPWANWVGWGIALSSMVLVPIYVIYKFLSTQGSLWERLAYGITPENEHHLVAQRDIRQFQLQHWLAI

[3] = target: Sodium-dependent serotonin transporter (Homo sapiens, UniProt P31645); assay: as §1, with “SLC6A4” for “DRD5”
Chain of Sodium-dependent serotonin transporter (P31645 whole entry): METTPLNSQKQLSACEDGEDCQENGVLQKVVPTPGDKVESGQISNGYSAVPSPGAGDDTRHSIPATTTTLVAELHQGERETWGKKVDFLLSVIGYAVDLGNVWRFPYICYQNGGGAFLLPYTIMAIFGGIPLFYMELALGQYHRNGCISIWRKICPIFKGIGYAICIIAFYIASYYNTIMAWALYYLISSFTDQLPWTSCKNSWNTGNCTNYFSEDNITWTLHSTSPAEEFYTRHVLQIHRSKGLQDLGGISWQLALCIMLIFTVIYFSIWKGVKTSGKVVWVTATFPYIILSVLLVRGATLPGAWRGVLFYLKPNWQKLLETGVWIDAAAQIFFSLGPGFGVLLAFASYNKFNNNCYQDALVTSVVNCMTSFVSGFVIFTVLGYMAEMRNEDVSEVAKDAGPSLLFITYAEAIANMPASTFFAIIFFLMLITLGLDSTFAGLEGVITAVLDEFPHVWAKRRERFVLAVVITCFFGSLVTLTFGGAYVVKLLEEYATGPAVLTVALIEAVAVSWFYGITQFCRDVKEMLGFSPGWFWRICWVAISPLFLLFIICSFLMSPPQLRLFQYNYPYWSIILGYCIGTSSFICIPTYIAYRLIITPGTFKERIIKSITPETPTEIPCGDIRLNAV

D(3) dopamine receptor = D(3) dopamine receptor (Homo sapiens, UniProt P35462); assay: as §1, with “DRD3” for “DRD5”
Chain of D(3) dopamine receptor (P35462 whole entry): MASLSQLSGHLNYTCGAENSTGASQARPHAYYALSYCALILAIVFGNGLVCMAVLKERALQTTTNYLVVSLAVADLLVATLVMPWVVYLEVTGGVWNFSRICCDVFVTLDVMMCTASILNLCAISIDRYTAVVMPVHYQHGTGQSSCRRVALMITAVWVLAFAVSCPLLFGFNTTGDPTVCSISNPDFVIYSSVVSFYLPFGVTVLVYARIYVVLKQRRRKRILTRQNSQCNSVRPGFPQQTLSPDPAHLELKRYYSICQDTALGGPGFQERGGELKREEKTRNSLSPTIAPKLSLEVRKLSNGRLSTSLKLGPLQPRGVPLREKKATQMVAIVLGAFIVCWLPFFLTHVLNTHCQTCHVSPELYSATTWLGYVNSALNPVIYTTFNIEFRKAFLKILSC

[4] = target: 5-hydroxytryptamine receptor 5A (Homo sapiens, UniProt P47898); assay: as §1, with “HTR5A” for “DRD5”
Chain of 5-hydroxytryptamine receptor 5A (P47898 whole entry): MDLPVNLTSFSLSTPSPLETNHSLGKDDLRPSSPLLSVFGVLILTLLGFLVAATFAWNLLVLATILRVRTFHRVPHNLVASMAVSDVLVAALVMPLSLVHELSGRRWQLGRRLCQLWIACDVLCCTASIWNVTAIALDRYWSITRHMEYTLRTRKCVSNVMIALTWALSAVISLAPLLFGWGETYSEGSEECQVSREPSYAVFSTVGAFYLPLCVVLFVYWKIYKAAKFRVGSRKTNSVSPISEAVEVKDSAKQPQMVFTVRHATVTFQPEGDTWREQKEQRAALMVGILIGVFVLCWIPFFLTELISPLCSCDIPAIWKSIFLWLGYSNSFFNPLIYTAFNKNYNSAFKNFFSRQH

Histamine H1 receptor = Histamine H1 receptor (Homo sapiens, UniProt P35367); assay: as §1, with “HRH1” for “DRD5”
[5] = target: Sodium-dependent dopamine transporter (Homo sapiens, UniProt Q01959); assay: as §1, with “SLC6A3” for “DRD5”
Chain of Sodium-dependent dopamine transporter (Q01959 whole entry): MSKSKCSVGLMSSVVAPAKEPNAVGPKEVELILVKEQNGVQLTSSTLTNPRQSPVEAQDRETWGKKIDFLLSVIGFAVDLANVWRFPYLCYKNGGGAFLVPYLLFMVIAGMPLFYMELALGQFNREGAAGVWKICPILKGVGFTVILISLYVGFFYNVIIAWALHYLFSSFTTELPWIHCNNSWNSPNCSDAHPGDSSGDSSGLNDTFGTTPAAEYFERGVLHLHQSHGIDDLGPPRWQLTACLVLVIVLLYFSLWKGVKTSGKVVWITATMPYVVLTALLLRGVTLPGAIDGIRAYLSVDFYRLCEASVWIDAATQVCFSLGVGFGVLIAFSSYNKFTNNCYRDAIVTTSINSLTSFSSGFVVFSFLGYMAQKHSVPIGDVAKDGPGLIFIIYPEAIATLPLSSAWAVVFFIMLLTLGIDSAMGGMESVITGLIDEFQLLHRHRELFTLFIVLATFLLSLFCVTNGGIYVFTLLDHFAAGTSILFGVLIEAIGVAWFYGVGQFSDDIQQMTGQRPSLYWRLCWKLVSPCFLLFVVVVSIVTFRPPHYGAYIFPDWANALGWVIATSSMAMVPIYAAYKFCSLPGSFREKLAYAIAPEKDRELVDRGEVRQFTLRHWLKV

Mu-type opioid receptor = Mu-type opioid receptor (Homo sapiens, UniProt P35372); assay: as §1, with “OPRM1” for “DRD5”
Chain of Mu-type opioid receptor (P35372 whole entry): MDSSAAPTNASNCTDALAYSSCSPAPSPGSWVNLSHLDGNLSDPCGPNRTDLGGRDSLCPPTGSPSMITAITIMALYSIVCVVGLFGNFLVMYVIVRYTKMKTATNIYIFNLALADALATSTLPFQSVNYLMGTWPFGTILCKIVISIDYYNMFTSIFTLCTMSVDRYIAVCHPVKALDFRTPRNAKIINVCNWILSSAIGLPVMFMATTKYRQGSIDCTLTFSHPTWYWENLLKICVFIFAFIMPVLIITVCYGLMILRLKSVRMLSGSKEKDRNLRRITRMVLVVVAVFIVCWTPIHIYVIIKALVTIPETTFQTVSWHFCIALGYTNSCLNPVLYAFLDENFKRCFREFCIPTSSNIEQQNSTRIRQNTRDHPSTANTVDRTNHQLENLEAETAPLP

[6] = target: Sigma intracellular receptor 2 (Homo sapiens, UniProt Q5BJF2); assay: as §1, with “TMEM97” for “DRD5”
Chain of Sigma intracellular receptor 2 (Q5BJF2 whole entry): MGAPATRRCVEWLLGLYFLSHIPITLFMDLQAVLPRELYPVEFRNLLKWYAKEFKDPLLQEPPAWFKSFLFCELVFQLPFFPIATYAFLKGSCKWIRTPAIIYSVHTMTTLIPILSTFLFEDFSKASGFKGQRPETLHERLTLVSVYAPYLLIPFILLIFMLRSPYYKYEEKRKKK

[7] = target: T1, Alpha-2B adrenergic receptor (Homo sapiens, UniProt P18089); assay: as §1, with “ADRA2B” for “DRD5”
T1 sequence (P18089 whole entry): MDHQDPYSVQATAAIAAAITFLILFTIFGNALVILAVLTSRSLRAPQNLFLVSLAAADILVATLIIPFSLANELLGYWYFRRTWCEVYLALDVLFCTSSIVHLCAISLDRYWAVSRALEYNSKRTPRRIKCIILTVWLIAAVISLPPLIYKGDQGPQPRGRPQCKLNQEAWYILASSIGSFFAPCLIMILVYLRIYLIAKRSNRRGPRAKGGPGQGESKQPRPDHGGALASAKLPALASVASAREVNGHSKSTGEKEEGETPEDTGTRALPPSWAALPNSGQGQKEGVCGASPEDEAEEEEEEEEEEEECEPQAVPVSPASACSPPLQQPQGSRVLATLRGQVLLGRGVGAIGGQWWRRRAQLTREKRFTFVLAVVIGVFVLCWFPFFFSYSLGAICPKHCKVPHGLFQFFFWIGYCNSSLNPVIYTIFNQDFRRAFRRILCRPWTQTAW

[8] = target: 5-hydroxytryptamine receptor 7 (Homo sapiens, UniProt P34969); assay: as §1, with “HTR7” for “DRD5”
[9] = target: T2, Alpha-2C adrenergic receptor (Homo sapiens, UniProt P18825); assay: as §1, with “ADRA2C” for “DRD5”
T2 sequence (P18825 whole entry): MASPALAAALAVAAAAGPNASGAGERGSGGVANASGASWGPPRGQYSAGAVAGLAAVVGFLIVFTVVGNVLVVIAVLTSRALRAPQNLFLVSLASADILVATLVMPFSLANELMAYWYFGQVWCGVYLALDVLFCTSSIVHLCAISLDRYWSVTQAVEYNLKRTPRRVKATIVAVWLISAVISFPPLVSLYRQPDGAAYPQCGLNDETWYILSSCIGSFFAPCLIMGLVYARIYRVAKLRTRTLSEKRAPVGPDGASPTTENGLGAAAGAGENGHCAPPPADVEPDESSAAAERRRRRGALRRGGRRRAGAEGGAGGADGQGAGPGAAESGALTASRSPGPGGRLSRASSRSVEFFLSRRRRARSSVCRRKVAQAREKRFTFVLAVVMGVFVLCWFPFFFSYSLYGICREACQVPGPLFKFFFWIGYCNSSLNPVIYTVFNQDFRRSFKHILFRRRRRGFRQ

[10] = target: 5-hydroxytryptamine receptor 1B (Homo sapiens, UniProt P28222); assay: as §1, with “HTR1B” for “DRD5”
Chain of 5-hydroxytryptamine receptor 1B (P28222 whole entry): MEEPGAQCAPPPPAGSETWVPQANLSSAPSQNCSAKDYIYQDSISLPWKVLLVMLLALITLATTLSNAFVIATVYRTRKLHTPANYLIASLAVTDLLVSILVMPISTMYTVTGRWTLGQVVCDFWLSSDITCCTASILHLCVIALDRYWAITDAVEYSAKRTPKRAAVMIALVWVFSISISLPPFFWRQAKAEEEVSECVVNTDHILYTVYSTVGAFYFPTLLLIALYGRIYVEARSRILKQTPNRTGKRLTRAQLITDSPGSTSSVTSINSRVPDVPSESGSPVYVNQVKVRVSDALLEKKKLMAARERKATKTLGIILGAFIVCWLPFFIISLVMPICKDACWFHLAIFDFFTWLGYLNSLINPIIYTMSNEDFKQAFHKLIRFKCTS

D(4) dopamine receptor = target: T3, D(4) dopamine receptor (Homo sapiens, UniProt P21917); assay: as §1, with “DRD4” for “DRD5”
T3 sequence (P21917 whole entry): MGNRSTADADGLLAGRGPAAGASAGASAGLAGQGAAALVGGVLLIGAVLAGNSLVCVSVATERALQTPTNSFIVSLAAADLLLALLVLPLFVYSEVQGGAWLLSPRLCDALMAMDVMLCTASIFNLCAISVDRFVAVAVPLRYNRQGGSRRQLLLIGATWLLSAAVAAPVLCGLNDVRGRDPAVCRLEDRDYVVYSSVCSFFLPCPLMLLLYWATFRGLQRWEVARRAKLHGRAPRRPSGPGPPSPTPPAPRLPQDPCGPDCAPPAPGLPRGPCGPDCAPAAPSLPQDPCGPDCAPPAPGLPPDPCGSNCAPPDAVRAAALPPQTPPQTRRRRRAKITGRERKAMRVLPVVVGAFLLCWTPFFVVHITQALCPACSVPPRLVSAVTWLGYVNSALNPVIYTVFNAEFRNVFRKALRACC

D(2) dopamine receptor = D(2) dopamine receptor (Homo sapiens, UniProt P14416); assay: as §1, with “DRD2” for “DRD5”
Chain of D(2) dopamine receptor (P14416 whole entry): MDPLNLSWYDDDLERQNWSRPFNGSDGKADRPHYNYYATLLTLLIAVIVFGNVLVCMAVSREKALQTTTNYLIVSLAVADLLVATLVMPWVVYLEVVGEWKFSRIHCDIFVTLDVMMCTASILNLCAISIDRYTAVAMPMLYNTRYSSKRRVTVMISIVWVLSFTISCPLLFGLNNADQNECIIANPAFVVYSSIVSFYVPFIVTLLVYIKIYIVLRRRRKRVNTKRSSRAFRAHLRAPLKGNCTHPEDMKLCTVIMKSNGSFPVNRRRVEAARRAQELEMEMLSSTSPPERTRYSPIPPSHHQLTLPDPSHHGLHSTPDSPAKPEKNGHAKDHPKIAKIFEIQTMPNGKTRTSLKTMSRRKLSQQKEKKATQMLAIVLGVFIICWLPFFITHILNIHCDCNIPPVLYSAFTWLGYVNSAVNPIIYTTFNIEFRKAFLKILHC

[11] = target: 5-hydroxytryptamine receptor 2A (Homo sapiens, UniProt P28223); assay: as §1, with “HTR2A” for “DRD5”
[12] = target: T4, 5-hydroxytryptamine receptor 2C (Homo sapiens, UniProt P28335); assay: as §1, with “HTR2C” for “DRD5”
T4 sequence (P28335 whole entry): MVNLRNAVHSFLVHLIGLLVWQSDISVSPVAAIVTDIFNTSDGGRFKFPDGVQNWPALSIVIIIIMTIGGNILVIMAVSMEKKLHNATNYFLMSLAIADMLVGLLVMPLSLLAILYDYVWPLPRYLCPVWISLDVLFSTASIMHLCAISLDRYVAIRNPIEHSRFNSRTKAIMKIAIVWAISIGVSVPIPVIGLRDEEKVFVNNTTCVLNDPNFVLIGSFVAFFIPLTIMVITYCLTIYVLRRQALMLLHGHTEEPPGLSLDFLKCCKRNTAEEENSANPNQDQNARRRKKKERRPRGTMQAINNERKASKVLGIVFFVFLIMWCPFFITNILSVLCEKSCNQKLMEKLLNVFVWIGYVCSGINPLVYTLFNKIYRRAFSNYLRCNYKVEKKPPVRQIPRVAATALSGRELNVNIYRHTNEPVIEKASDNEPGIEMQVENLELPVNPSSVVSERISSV

[13] = target: T5, Alpha-2A adrenergic receptor (Homo sapiens, UniProt P08913); assay: as §1, with “ADRA2A” for “DRD5”
T5 sequence (P08913 whole entry): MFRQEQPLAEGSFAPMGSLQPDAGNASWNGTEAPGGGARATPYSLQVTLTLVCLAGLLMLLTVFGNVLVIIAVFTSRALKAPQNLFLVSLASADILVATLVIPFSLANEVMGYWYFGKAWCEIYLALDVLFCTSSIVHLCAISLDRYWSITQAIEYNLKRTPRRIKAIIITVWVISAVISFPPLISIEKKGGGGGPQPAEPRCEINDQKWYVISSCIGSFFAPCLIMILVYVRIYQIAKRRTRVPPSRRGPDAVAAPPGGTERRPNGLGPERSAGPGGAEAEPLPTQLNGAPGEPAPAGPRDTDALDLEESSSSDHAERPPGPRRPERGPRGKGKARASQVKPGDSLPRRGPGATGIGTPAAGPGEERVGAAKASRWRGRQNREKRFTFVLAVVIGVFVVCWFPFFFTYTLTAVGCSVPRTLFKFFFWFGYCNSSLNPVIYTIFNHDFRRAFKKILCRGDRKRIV

[14] = target: Kappa-type opioid receptor (Homo sapiens, UniProt P41145); assay: as §1, with “OPRK1” for “DRD5”
[15] = target: T6, Muscarinic acetylcholine receptor M5 (Homo sapiens, UniProt P08912); assay: as §1, with “CHRM5” for “DRD5”
T6 sequence (P08912 whole entry): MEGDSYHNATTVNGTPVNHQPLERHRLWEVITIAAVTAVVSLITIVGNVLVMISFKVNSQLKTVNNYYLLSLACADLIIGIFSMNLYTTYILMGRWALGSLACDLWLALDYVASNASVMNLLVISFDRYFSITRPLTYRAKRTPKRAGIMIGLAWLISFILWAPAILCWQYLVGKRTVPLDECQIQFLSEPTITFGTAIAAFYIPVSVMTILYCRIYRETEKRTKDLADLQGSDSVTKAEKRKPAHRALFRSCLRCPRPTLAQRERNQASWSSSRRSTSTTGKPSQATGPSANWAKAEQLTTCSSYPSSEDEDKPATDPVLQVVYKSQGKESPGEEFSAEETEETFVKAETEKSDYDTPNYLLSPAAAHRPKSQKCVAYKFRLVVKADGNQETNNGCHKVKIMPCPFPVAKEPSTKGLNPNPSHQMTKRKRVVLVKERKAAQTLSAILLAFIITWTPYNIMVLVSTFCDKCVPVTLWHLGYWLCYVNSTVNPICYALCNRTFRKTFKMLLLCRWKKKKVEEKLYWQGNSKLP

Structure (SMILES): COc1ccccc1N1CCN(CCCCNC(=O)c2ccc3ccccc3c2)CC1
Ki (Translocator protein): 1180 nM
Ki [4]: 754 nM
Ki (Histamine H1 receptor): 125 nM
Ki [5]: 734 nM
Ki (Mu-type opioid receptor): 249 nM
Ki [6]: 113 nM
Ki [2]: 1.67 µM
Ki [3]: 304 nM
Ki [7]: 132 nM
Ki [8]: 29.8 nM
Ki [9]: 83.6 nM
Ki [10]: 0.166 µM
Ki [1]: 256 nM

Structure (SMILES): N#Cc1c(N)nc(SCC(N)=O)c(C#N)c1-c1ccc(OCC2CC2)cc1
Ki [14]: 407 nM
Ki [10]: 6.67 µM
Ki [1]: 1000 nM

Structure (SMILES): CC(C)(C(=O)O)c1ccc(C(O)CCCN2CCC(C(O)(c3ccccc3)c3ccccc3)CC2)cc1 (stereo not drawn) [FEXOFENADINE HYDROCHLORIDE]
Ki (D(2) dopamine receptor): 8.81 µM

Structure (SMILES): O=C(O)c1n[nH]c2c1C[C@H]1C[C@@H]21
Ki [4]: > 10000 nM
Ki [2]: > 10 µM
Ki [3]: 2430 nM

Structure (SMILES): OC1(c2ccc(Cl)cc2)CCN(Cc2c[nH]c3ccccc23)CC1
Ki [15]: 579 nM
Ki (D(4) dopamine receptor): 0.569 µM
Ki [5]: 1400 nM
Ki (Mu-type opioid receptor): 51.5 nM
Ki [6]: 269 nM
Ki [2]: 1.47 µM
Ki [3]: 29.5 nM
Ki [7]: 602 nM
Ki [13]: 3850 nM
Ki (D(3) dopamine receptor): 205 nM

The next lines start with the values.

Ki (D(1B) dopamine receptor): > 10 µM
Ki [1]: 2610 nM
Structure (SMILES): OC[C@H]1O[C@@H](n2cnc3c(NC4CCCC4)ncnc32)[C@H](O)[C@@H]1O [N6-CYCLOPENTYLADENOSINE]

Ki (Translocator protein): 2120 nM
Ki [2]: 4.83 µM
Ki [3]: > 10000 nM
Ki (D(3) dopamine receptor): 1000 nM
Structure (SMILES): CCCNS(=O)(=O)Nc1ncnc(OCCOc2ncc(Br)cn2)c1-c1ccc(Br)cc1

Ki (Translocator protein): 4780 nM
Ki (D(4) dopamine receptor): 8.73 µM
Ki (D(2) dopamine receptor): 3.85 µM
Structure (SMILES): O=c1ccn([C@@H]2O[C@H](COP(=O)(O)OP(=O)(O)OP(=O)(O)O)[C@@H](O)[C@H]2O)c(=O)[nH]1

Ki [2]: 7.55 µM
Ki [3]: 7610 nM
Ki (D(3) dopamine receptor): 2040 nM
Structure (SMILES): N[C@H](C(=O)O)c1ccc(C(=O)O)c(C(=O)O)c1

Ki [11]: 1590 nM
Ki [6]: 956 nM
Ki [12]: 139 nM
Ki [2]: 1.09 µM
Ki [3]: 995 nM
Ki [13]: 1020 nM
Ki [1]: 1700 nM
Ki (D(2) dopamine receptor): 0.596 µM
Structure (SMILES): Cc1cc(NC(=O)NCCN2CCC(O)(Cc3ccccc3)CC2)c2ccccc2n1 [PALOSURAN]

Ki [2]: 6.91 µM
Ki [3]: 7770 nM
Ki (D(3) dopamine receptor): 2580 nM
Structure (SMILES): CCCCCNC(=O)NS(=O)(=O)c1cc([N+](=O)[O-])ccc1NC1CCCCC1
